Columns and labels:
FLT3 = target: T1, FLT3 (Homo sapiens, UniProt P36888); experiment: FLT3 kinase in vitro inhibitory activity experiment (Caliper mobility shift, conversion rate); format: biochemical; settings: IC50 class, read-out: Enzyme activity FLT3
T1 construct: purchased Carna 08-145
T1 sequence (P36888 27-993): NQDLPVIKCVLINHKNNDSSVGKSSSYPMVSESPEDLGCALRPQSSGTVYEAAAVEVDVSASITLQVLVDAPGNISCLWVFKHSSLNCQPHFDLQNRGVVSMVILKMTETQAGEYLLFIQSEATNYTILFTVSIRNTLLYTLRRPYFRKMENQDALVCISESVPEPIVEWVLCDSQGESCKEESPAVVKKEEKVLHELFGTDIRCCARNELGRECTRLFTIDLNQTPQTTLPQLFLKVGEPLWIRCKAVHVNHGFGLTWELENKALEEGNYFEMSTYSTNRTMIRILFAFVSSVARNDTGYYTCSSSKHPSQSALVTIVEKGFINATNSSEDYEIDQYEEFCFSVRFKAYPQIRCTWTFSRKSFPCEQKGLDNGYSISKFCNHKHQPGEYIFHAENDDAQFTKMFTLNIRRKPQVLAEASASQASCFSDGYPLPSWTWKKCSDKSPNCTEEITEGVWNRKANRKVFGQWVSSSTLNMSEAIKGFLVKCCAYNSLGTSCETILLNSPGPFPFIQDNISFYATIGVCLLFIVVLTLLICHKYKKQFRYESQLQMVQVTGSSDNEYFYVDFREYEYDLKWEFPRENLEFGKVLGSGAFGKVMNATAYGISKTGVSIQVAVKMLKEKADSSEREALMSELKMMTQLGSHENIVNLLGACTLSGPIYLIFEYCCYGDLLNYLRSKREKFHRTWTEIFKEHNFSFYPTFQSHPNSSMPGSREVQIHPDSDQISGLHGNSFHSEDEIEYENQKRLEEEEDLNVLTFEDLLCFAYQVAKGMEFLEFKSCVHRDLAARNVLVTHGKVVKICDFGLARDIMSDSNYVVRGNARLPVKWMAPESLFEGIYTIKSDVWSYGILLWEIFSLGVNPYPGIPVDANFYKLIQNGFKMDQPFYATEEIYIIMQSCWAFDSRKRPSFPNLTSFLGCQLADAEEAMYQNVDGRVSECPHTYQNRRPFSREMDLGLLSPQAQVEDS
Procedure, shortened: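 FLT3 was pre-incubated with compound for 10 min at room temperature, then the reaction was started with ATP plus Kinase substrate 2 and run 30 min at room temperature before stop solution. Substrate conversion was read by Caliper mobility shift.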

MV4;11 cells = experiment: MV4;11 in vitro inhibition of proliferation assay (CellTiter-Glo, 72 hours); format: cell-based; settings: Homo sapiens, MV4-11, 72 h, IC50 class, read-out: Inhibitory activity of cell proliferation MV4;11
Procedure, shortened: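 MV4;11 cells in IMDM/10% FBS, 2000 per well, were exposed to 9-point 3-fold DMSO dilutions from 10 uM (final DMSO 0.3%) in triplicate for 72 hours at 37° C., 5% CO2. Viability was read by CellTiter-Glo luminescence, and IC50 came from a four-parameter fit of inhibition.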

| IC50 (FLT3) [nM] | IC50 (MV4;11 cells) [nM] | Compound |
| --- | --- | --- |
| ≤ 10 | ≤ 10 | [2H]C([2H])([2H])C([2H])(N1CCC(n2cc(-c3cnc(N)c4nc(CC)c(N[C@@H]5CC[C@H](O)C5)nc34)cn2)CC1)C([2H])([2H])[2H] [Compound 222] |
| ≤ 10 | ≤ 10 | CCc1nc2c(N)ncc(-c3cnn(C4CCN(C)CC4)c3)c2nc1N[C@H]1CCOC1 [Compound 223] |
| ≤ 10 | ≤ 10 | CCc1nc2c(N)ncc(-c3cnn(C4CCN(CC)CC4)c3)c2nc1N[C@H]1CCOC1 [Compound 224] |
| ≤ 10 | ≤ 10 | CCc1nc2c(N)ncc(-c3cnn(C4CCN(C(C)C)CC4)c3)c2nc1N[C@H]1CCOC1 [Compound 225] |
| ≤ 10 | ≤ 10 | CCc1nc2c(N)ncc(-c3cnn(C4CCN(C(CC)CC)CC4)c3)c2nc1N[C@H]1CCOC1 [Compound 226] |
| ≤ 10 | ≤ 10 | CCc1nc2c(N)ncc(-c3cnn(C4CCN(C(C)CC)CC4)c3)c2nc1N[C@H]1CCOC1 (some centres unmarked) [Compound 227] |
| ≤ 10 | 10 to 100 | CCc1nc2c(N)ncc(-c3cnn(C4CCN(C5CC5)CC4)c3)c2nc1N[C@H]1CCOC1 [Compound 228] |
| ≤ 10 | ≤ 10 | CCc1nc2c(N)ncc(-c3cnn(C4CCN(C(CC)CC)CC4)c3)c2nc1NC1CCOCC1 [Compound 232, 3-Ethyl-8-(1-(1-(pent-3-yl)piperidin-4-yl)-1H-pyrazol-4-yl)-N2-(tetrahydro-2H-pyran-4-yl)pyridino [3,4-b]pyrazine-2,5-diamine] |
| ≤ 10 | ≤ 10 | CCc1nc2c(N)ncc(-c3cnn(C4CCN(CC(C)(C)O)CC4)c3)c2nc1NC1CCOCC1 [Compound 233] |
| ≤ 10 | ≤ 10 | CCc1nc2c(N)ncc(-c3cnn(C4CCN(C(C)C)CC4)c3)c2nc1NC1CCOCC1 [Compound 234] |
| ≤ 10 | ≤ 10 | CCc1nc2c(N)ncc(-c3cnn(C4CCN(C5CCN(CC)CC5)CC4)c3)c2nc1NC1CCOCC1 [Compound 235] |
| ≤ 10 | 10 to 100 | CCc1nc2c(N)ncc(-c3cnn(C4CCN(C5CCN(C(C)C)CC5)CC4)c3)c2nc1NC1CCOCC1 [Compound 236] |
| ≤ 10 | 10 to 100 | CCc1nc2c(N)ncc(-c3cnn(C4CCN(C5CCOCC5)CC4)c3)c2nc1NC1CCOCC1 [Compound 237] |
| ≤ 10 | 10 to 100 | CCc1nc2c(N)ncc(-c3cnn(C4CCN(C5COC5)CC4)c3)c2nc1NC1CCOCC1 [Compound 238] |
| ≤ 10 | 10 to 100 | CCc1nc2c(N)ncc(-c3cnn(C4CCN(C5CCN(CCO)CC5)CC4)c3)c2nc1NC1CCOCC1 [Compound 239] |
| ≤ 10 | 10 to 100 | CCc1nc2c(N)ncc(-c3cnn(C4CCN(C5CCN(CCOC)CC5)CC4)c3)c2nc1NC1CCOCC1 [Compound 240] |
| ≤ 10 | 10 to 100 | CCc1nc2c(N)ncc(-c3cnn(C4CCN(C5CCN(CC(C)C)CC5)CC4)c3)c2nc1NC1CCOCC1 [Compound 241] |
| ≤ 10 | 10 to 100 | CCc1nc2c(N)ncc(-c3cnn(C4CCN(C5CN(C)C5)CC4)c3)c2nc1NC1CCOCC1 [Compound 242] |
| ≤ 10 | ≤ 10 | CCc1nc2c(N)ncc(-c3cnn(C4CCN(C5CCN(C6CC6)CC5)CC4)c3)c2nc1NC1CCOCC1 [Compound 243] |
| ≤ 10 | 10 to 100 | CCc1nc2c(N)ncc(-c3cnn(C4CCN(C5CCN(CC)CC5)CC4)c3)c2nc1N[C@H]1CCOC1 [Compound 244] |
| ≤ 10 | ≤ 10 | CCc1nc2c(N)ncc(-c3cnn(C4CCN(C5CCN(CC)CC5)CC4)c3)c2nc1N[C@@H]1CC[C@H](O)C1 [Compound 245] |
| ≤ 10 | ≤ 10 | CCc1nc2c(N)ncc(-c3cnn(C4CCN(C5CCN(CC)CC5)CC4)c3)c2nc1NC1CCCC(O)C1 (centres unmarked) [Compound 246, 3-((5-amino-3-ethyl-8-(1-(1′-ethyl-[1,4′-bipiperidine]-4-yl)-1H-pyrazol-4-yl)pyridino[3,4-b]pyrazine-2-yl)amino)cyclohexan-1-ol] |

Reference: patent publication US12673947B2 (Cytosinlab Therapeutics Co., Ltd., priority 2020, dated 2026)
